Measured values published in patent publication US20070243244A1 (priority 2005, published 2007).
Where two headings read alike, the source gives them in different places.

Legend:
[1] = cell monolayer permeability studies; type: in vitro ADME; conditions: 1 mM in ethanol and buffer, pH 6 to 6.4
[2] = systemic clearance in dogs; conditions: dog, in vivo, after a single 5 mg/kg dose, read-out: systemic clearance (ClT) in dogs (converted)
[3] = pharmacokinetics after single oral (gavage) and intravenous dose in 0.9% saline (Example 2); set-up: species or system cynomolgus monkeys; conditions: male, cynomolgus monkey, in vivo; for Vd: Vdss
Protocol: Four male cynomolgus monkeys were used in the study. […] The dosing volume was 10 mL/kg.
By using 0.2 mL of monkey plasma sample, the assay limit of quantitation (LOQ) was 100 ng/mL and the curve range was between 100 and 6400 ng/mL.
AUC0-4 was calculated by AUC0-t+Ct/λ, where AUC0-t was the AUC from time 0 to t, the last quantifiable time point and Ct was the last quantifiable concentration. […] Systemic clearance (CLT) after the iv dose was calculated using the formula of Dose/AUC0-4.

[4] = oral bioavailability of encapsulated microparticulate (100 mg) enteric coated formulation (Example 3); set-up: species or system cynomolgus monkeys; conditions: cynomolgus monkey, in vivo
Protocol: Each 100 mg capsule contained 478.5 mg enteric coated granules. […] The monkeys were housed in Bioresources vivarium with free access to water and food. The four monkeys received the oral formulation described above (1×100 mg multi-particulate capsule). The formulation was administered with 10 mL water. All monkeys were fasted overnight prior to dosing (with free access to water) and were fed 4 hours after dose administration. […] Approximately 3 mL of blood were drawn into Vacutainer® tubes containing sodium heparin as the anticoagulant. Plasma was separated in a refrigerated centrifuge and stored at -70° C. Plasma samples were delivered to the assay site packed on dry ice.

solubility in water = type: physicochemical; conditions: over the entire pH range of 1 to 14
[5] = iv, 5 mg/kg, Plasma Concentrations
[6] = po, 15 mg/kg, Plasma Concentrations
[7] = po, 15 mg/kg, Plasma Concentrations, Mean
[8] = cynomolgus, iv, 5 mg/kg, Plasma Concentrations
[9] = cynomolgus, iv, 5 mg/kg, Plasma Concentrations, Mean

CN(C)c1cc(NC(=O)CNC(C)(C)C)c(O)c2c1C[C@H]1C[C@H]3[C@H](N(C)C)C(O)=C(C(N)=O)C(=O)[C@@]3(O)C(O)=C1C2=O [Tigecycline]
Papp at 1 mM [1]: 0.04 ×10⁻⁶ cm/s | clearance [2]: ~4.33 mL/min/kg | AUC ([3]; 15 mg/kg): 18300 ng·h/mL | Cmax ([3]; 15 mg/kg, Cmax): 15100 ng/mL | half-life ([3]; 15 mg/kg, t1/2): 14.1 h | AUC(0-t) ([3]; iv, 5 mg/kg): 18200 ng·h/mL | ClT, Mean ([3]; iv, 5 mg/kg): 4.67 mL/min/kg | MRTiv, Mean ([3]; iv, 5 mg/kg): 12.8 h | Plasma Concentrations ([3]; iv, 5 mg/kg, 0 hr): <100 ng/mL | concentration at 0 hr [3, 5]: < 100 ng/mL | concentration at 0.5 hr [3, 5]: 3340 ng/mL | concentration at 1 hr [3, 5]: 1660 ng/mL | concentration at 12 hr [3, 5]: 265 ng/mL | concentration at 24 hr [3, 5]: 155 ng/mL | concentration at 32 hr [3, 5]: < 100 ng/mL | concentration at 48 hr [3, 5]: < 100 ng/mL | Vd ([3]; iv, 5 mg/kg, Mean): 3.47 L/kg | half-life ([3]; iv, 5 mg/kg, t1/2): 11.4 to 19.1 h | half-life ([3]; iv, 5 mg/kg, t1/2, Mean): 14.1 h | AUC ([3]; po, 15 mg/kg): 163 ng·h/mL | detected in samples up to (time post-dose) ([3]; po, 15 mg/kg): up to 2 hours | Plasma Concentrations ([3]; po, 15 mg/kg, 0 h): <100 ng/mL | Plasma Concentrations ([3]; po, 15 mg/kg, 4 hr): <100 ng/mL | Plasma Concentrations ([3]; po, 15 mg/kg, 6 hr): <100 ng/mL | Plasma Concentrations ([3]; po, 15 mg/kg, 8 hr): <100 ng/mL | Plasma Concentrations ([3]; po, 15 mg/kg, 12 hr): <100 ng/mL | Plasma Concentrations ([3]; po, 15 mg/kg, 24 h): <100 ng/mL | Plasma Concentrations ([3]; po, 15 mg/kg, 32 h): <100 ng/mL | Plasma Concentrations ([3]; po, 15 mg/kg, 48 h): <100 ng/mL | AUC(0-t) ([3]; po, 15 mg/kg, AUC0-t, Mean): 163 ng·h/mL | Cmax ([3]; po, 15 mg/kg, Cmax): 163 ng/mL | concentration at 0 h [3, 6]: < 100 ng/mL | concentration at 0.5 h [3, 6]: < 100 ng/mL | concentration at 1 hr [3, 6]: 114 ng/mL | concentration at 2 hr [3, 6]: 131 ng/mL | concentration at 4 hr [3, 6]: < 100 ng/mL | concentration at 6 hr [3, 6]: < 100 ng/mL | concentration at 8 hr [3, 6]: < 100 ng/mL | concentration at 12 hr [3, 6]: < 100 ng/mL | concentration at 24 h [3, 6]: < 100 ng/mL | concentration at 32 h [3, 6]: < 100 ng/mL | concentration at 48 h [3, 6]: < 100 ng/mL | concentration at 0 h [3, 7]: 0 ng/mL | concentration at 0.5 h [3, 7]: 55.5 ng/mL | concentration at 1 h [3, 7]: 131 ng/mL | concentration at 2 h [3, 7]: 118 ng/mL | concentration at 4 h [3, 7]: 0 ng/mL | concentration at 6 h [3, 7]: 0 ng/mL | concentration at 8 h [3, 7]: 0 ng/mL | concentration at 12 h [3, 7]: 0 ng/mL | concentration at 24 h [3, 7]: 0 ng/mL | concentration at 32 h [3, 7]: 0 ng/mL | concentration at 48 h [3, 7]: 0 ng/mL | Tmax ([3]; po, 15 mg/kg, tmax): 1.8 h | Tmax ([3]; po, 15 mg/kg, tmax, Mean): 1.8 h | concentration at 2 hr ([3]; monkeys, single oral (gavage) dose of 15 mg/kg, 2 hr, individual animals, read-out: Plasma Concentrations): 191 ng/mL | Cmax ([3]; cynomolgus, iv, 5 mg/kg, Cmax, Mean): 15100 ng/mL | AUC(0-t) ([3]; cynomolgus, iv, 5 mg/kg, Mean): 18300 ± 3030 ng·h/mL | concentration at 2 hr [3, 8]: 1010 ng/mL | concentration at 4 hr [3, 8]: 588 ng/mL | concentration at 6 hr [3, 8]: 431 ng/mL | concentration at 8 hr [3, 8]: 372 ng/mL | concentration at 0 hr [3, 9]: 0 ng/mL | concentration at 0.083 hr [3, 9]: 15100 ng/mL | concentration at 0.5 hr [3, 9]: 2250 ng/mL | concentration at 1 hr [3, 9]: 1400 ng/mL | concentration at 2 hr [3, 9]: 1090 ng/mL | concentration at 4 hr [3, 9]: 697 ng/mL | concentration at 6 hr [3, 9]: 499 ng/mL | concentration at 8 hr [3, 9]: 392 ng/mL | concentration at 12 hr [3, 9]: 264 ng/mL | concentration at 24 hr [3, 9]: 162 ng/mL | concentration at 32 hr [3, 9]: 31.8 ng/mL | concentration at 48 hr [3, 9]: 27 ng/mL | Vd ([3]; cynomolgus, iv, 5 mg/kg, Mean): 3.47 ± 1.09 L/kg | half-life ([3]; cynomolgus, iv, 5 mg/kg, t1/2): 12.8 h | half-life ([3]; cynomolgus, iv, 5 mg/kg, t1/2, Mean): 14.1 ± 3.4 h | Tmax ([3]; cynomolgus, po, 15 mg/kg): 1.0 h | Cmax ([3]; cynomolgus, po, 15 mg/kg, Cmax): 178 ng/mL | Cmax ([3]; cynomolgus, po, 15 mg/kg, Cmax, Mean): 163 ± 27.1 ng/mL | Tmax ([3]; cynomolgus, po, 15 mg/kg, tmax): 1 to 2 h | Cmax ([3]; cynomolgus, monkeys, single oral (gavage) dose of 15 mg/kg, individual animals, read-out: Cmax): 191 ng/mL | concentration at 1 hr ([4]; fasted male cynomolgus monkeys, single oral dose 100 mg encapsulated microparticulate capsule, 1 hr, individual animals, read-out: Plasma Concentrations): 113 ng/mL | concentration at 3 hr ([4]; fasted male cynomolgus monkeys, single oral dose 100 mg encapsulated microparticulate capsule, 3 hr, individual animals, read-out: Plasma Concentrations): 174 ng/mL | concentration at 4 hr ([4]; fasted male cynomolgus monkeys, single oral dose 100 mg encapsulated microparticulate capsule, 4 hr, individual animals, read-out: Plasma Concentrations): 113 ng/mL | AUC/Dose, Mean ([4]; male): 174 | Cmax/Dose, Mean ([4]; male): 14.0 | AUC/Dose ([4]; male, po, 16 mg/kg): 174 | Cmax/Dose ([4]; male, po, 16 mg/kg): 14.0 | AUC ([4]; male, po, 16 mg/kg, AUC0/t or 0-∞): 2830 ng·h/mL | bioavailability ([4]; male, po, 16 mg/kg, Bioavailability): 4.8% | Cmax ([4]; male, po, 16 mg/kg): 225 ng/mL | bioavailability ([4]; male, po, 16 mg/kg, absolute bioavailability of tigecycline in the blood): 5% | half-life ([4]; male, po, 16 mg/kg, t1/2): 12.1 h | Tmax ([4]; male, po, 16 mg/kg, tmax): 2.25 h | Tmax ([4]; male, po, 100 mg): 3.0 h | AUC(0-inf) ([4]; male, po, 100 mg, AUC0-∞, Mean): 2830 ng·h/mL | AUC ([4]; male, po, 100 mg, AUC0/24, Mean): 2130 ng·h/mL | Cmax ([4]; male, po, 100 mg, Mean): 225 ng/mL | half-life ([4]; male, po, 100 mg, T1/2): 9.48 h | half-life ([4]; male, po, 100 mg, T1/2, Mean): 12.1 h | Tmax ([4]; male, po, 100 mg, Tmax): 2 h | Tmax ([4]; male, po, 100 mg, Tmax, Mean): 2.25 h | solubility (solubility in water): > 295 mg/mL
